Measured values published in PMC2864539 (Cancer research, 2010).

Key:
[1] = molecular target: T1, ovine COX-1 (Ovis aries, UniProt P05979); experiment: [[…]-14C]arachidonic acid conversion, radio-TLC; format: biochemical
T1 sequence (P05979 25-600): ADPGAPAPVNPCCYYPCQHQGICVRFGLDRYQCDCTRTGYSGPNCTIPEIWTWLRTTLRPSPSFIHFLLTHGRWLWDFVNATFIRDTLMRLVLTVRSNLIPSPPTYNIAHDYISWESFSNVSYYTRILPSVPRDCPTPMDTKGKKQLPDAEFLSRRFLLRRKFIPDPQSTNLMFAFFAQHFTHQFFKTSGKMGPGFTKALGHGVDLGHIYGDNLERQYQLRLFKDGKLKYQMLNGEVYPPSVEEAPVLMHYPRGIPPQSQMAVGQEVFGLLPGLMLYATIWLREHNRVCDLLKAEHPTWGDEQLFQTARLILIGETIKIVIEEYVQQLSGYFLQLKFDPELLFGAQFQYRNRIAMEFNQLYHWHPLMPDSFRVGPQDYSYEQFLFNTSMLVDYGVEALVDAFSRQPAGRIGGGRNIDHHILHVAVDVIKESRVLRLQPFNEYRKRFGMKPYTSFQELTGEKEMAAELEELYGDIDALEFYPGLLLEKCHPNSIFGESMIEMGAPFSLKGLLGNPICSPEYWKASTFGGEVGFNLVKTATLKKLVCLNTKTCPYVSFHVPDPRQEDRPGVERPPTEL

[2] = molecular target: T2, human COX-2 (Homo sapiens, UniProt P35354); experiment: [[…]-14C]arachidonic acid conversion, radio-TLC; format: biochemical
T2 sequence (P35354 18-604): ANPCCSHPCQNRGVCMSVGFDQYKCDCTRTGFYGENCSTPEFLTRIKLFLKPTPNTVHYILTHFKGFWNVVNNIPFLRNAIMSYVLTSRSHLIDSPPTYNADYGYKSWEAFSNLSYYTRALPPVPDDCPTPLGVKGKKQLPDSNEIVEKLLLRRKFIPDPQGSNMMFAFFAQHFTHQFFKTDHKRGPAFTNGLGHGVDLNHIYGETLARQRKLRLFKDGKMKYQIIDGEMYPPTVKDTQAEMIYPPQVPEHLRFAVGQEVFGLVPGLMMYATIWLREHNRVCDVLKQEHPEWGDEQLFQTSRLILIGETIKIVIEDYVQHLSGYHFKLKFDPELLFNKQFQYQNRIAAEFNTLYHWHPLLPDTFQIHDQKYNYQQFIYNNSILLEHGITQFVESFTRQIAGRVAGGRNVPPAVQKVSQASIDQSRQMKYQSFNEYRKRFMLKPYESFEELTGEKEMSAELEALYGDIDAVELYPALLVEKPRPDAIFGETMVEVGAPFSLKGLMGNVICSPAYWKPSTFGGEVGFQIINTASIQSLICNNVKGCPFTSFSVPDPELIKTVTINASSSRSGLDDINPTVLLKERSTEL

Question: What does the source list for `COc1ccc2c(c1)c(CC(=O)NCCNC(=O)c1ccc(C(=O)[O-])c(C3=c4cc5c6c(c4Oc4c3cc3c7c4CCCN7CCC3)CCC[N+]=6CCC5)c1)c(C)n2C(=O)c1ccc(Cl)cc1` [compound 3]?
Answer: IC50 [1]: > 66 µM; IC50 [2]: > 4 µM
